Experiments:
p38 phosphorylation = p38 phosphorylation in treated cells (Western blot of pp38); assay type: cell-based, human; details: 100nM; rebuttal Experiment 12
[1] = system: RPS19-insufficient cord blood CD34+ HSPCs; assay: In vitro differentiation of cord blood CD34+ HSPCs transduced with shRNA against RPS19 (cell count and flow cytometry); assay type: cell-based, human; details: RPS19-insufficient erythroblasts treated at 100nM; rebuttal Experiment 12
Experimental: Cells were plated at 2000 cell per well in 96-well plates in the presence or absence of doxycycline. Relative amounts of live cells were quantified by luciferase-based Cell titer-Glo® assay. b TGFβR1 inhibitors were assessed for their ability to increase cell expansion in RPS19-insuffiency. As a control, vehicle alone (no doxycycline) is represented at the far left while all other samples were treated with doxycycline to induce RPS19-insufficiency. c Kit^+ erythroid progenitors were grown in the absence of doxycycline and in the presence of 10 µM of indicated compound. In addition, cells were treated with 5 ng/ml of TGFβ1 for 5 days before being subjected to Cell titer-Glo® assay. d Differentiating cord blood CD34^+ progenitors were transduced with shRNA against luciferase or RPS19 and treated with inhibitors at working concentrations for TGFβ inhibition every three days. […] Cells were counted and CD235^+ erythroid (i and iii) and CD11b^+ myeloid cell (ii and iv) percentages were determined by flow cytometry. The number of erythroid or myeloid cells is expressed as a percentage of the number of that lineage with no cytokine or drug treatment. Bars represent means ± SD with individual data points overlaid. n = 3 independent experiments performed in triplicate. Statistics: two-tailed Student’s t test, significant *p < 0.05. Also see Supplementary Fig. 1. Erythroid expansion is depicted in red while myeloid is in purple. Source data are provided as a Source Data file.
Cells were counted and assessed for cell surface expression of CD235. b Lin-Kit^+ hematopoietic progenitors were obtained from three mouse embryos expressing tetracycline-inducible shRNA against RPS19 at day E14.5 or three untreated mice, and thee mature RPL11^+/+ or three mature RPL11^+/lox mice treated with tamoxifen for eight weeks. […] Values were expressed as a percentage relative to untreated controls. c, d Intracellular phosphorylation of NLK at Thr298 was determined by capillary electrophoresis using the Peggy Sue™ Automated Western blotting platform. After lysis, 4 µg of protein from the CD235^+ population was probed against pThr298-NLK and normalized to GAPDH. […] After counting the total cell population, the ratio of CD235^+ erythroblasts was determined by flow cytometry and number of CD235^+ erythroblasts calculated. This was expressed as a percentage of the average number of erythroid cells present in untreated healthy controls. f NLK phosphorylation was assessed by capillary electrophoresis as above. Bars represent means ± SD with individual data points overlaid. […] Statistics: two-tailed Student’s t test, significant *p < 0.05. Also see Supplementary Fig. 8. Source data are provided as a Source Data file.
Primary human CD34^+ hematopoietic stem and progenitor cells were purified from cord or peripheral blood (New York Blood Center) or from human fetal liver tissue (Advanced Bioscience Resources and University of California, Los Angeles Center for AIDS Research) by using magnetic-activated cell sorting (Miltenyi Biotec) and were cryopreserved. Upon thawing, cells were cultured in x-Vivo15 media (Lonza) containing 10% fetal bovine serum, fms-related tyrosine kinase 3 (50 ng/ml), […] (50 ng/ml), interleukin-3 (IL-3; 20 ng/ml), interleukin-6 (IL-6; 20 ng/ml), and stem cell factor (50 ng/ml). When applied, TGFβ1 was added at 5 ng/ml. Kp53A1 cells were obtained from Javier Leon and cultured in DMEM supplemented with 10% fetal bovine serum at 37 or 32 °C.

NLK dimerization and p53 [2] = assay: YFP-/CFP-NLK FRET (NLK dimerization) and p53 flow cytometry in healthy bone marrow mononuclear cells; assay type: cell-based, human; details: Nutlin-3 24 h, control 6.6%, Fig. 6c, d
Excerpt: (§1) Bars represent means ± SD with individual data points overlaid. n = 3 independent experiments performed in triplicate. […] Source data are provided as a Source Data file.

NLK dimerization and p53 [3] = assay: YFP-/CFP-NLK FRET (NLK dimerization) and p53 flow cytometry in cord blood CD34+ HSPCs; assay type: cell-based, human; details: d
Excerpt: Ribosome-insufficiency induces stabilization of p53 protein and contributes to DBA pathogenesis[27],[57]–[59]. […] To further examine the role of p53 in NLK activation in our model and DBA patient samples, we utilized Nutlin-3. Nutlin-3 inhibits the E3 ubiquitin ligase MDM2 binding of p53 and subsequently stabilizes p53 from ubiquitin-dependent degradation. NLK dimerizes upon activation[46] and the detection of FRET from dimerized YFP- and CFP-NLK pairs correlates with NLK activity in RPS19-insufficiency (Fig. 3d). […] We gated p53 expression into p53^low in which 6.6% of cells activate NLK, and p53^hi where 91.9% of cells activate NLK (Fig. 6b.ii). RPS19-insufficiency increased the p53^hi population from 8.1 to 34.1%, corresponding to an increase from 9.0 to 36.1% of cells with elevated NLK-dimerization (Fig. 6b.iii).
Fig. 6 NLK is activated in early erythroid progenitors and requires P53 stabilization in RPS19-insufficiency. a Cord blood CD34^+ progenitors were transduced with lentivirus expressing shRNA against luciferase (shLuc) or RPS19 (shRPS19) co-expressing GFP. Cells were also transduced with or without shRNA against p53 co-expressing mCherry. […] Cells were stained for p53 and both p53 and FRET was measured by flow cytometry. […] Bone marrow mononuclear cells from three DBA patients were pooled and analyzed simultaneously (iii). d Documentation of the percentage of cells with dimerizing NLK in p53^hi and p53^low is tabulated and can be compared with NLK in vitro kinase activity. e—green Samples were gated to include non-erythroid CD71^-CD235^- populations, MEP- and BFU-E-enriched CD71^lowCD235^- populations, CFU-E-enriched CD71^hiCD235^- populations and proerythroblast and intermediate erythroblast CD71^hiCD235^+ populations. […]

[4] = system: NLK phosphorylation at Thr298; assay: SDS-PAGE / pThr298-NLK Western blot after NLK in vitro kinase reaction (rebuttal Experiment 6); assay type: biochemical, human; details: Day 7
Experimental: Experiment 5. Activated p38 and NLK have different kinase specificity for NLK, c- […]
Immunopurification of activated NLK and p38 were incubated in the presence of ATP, Mg2+ and immobilized, dephosphorylated substrates. After 30 mins, the degree of substrate phosphorylation was determined. Of the four substrates examined, NL K wa s the most phosphorylated substrate detected wit h p38. The extent of phosphorylation of the other substrates by p38 was normalized to NLK as substrate , i.e. NLK-100%, c-Myb -79%, Raptor-33%, ST AT 3 -18%. Raptor was the most phosphorylated substrate of NLK. Consequently, phosphorylation of other substrates by NLK is expressed as a percentage of NLK-mediated Raptor phosphorylation, i.e . NLK-37%, c-M yb -80%, […]
Conclusion: W hile p38 and NLK can phosphorylate NLK, c-Myb and Raptor in vitro, we observe different specificities between immunoprecipitated NLK and p38. This would […]
1) W estern blotting analysis or RadioIsotope ivk assay showing increase of NLK autophosphorylation activity (Graph data is not suitable. SDS-PAGE gel data with molecular maker is suitable to show the activity of NLK itself)
Response: We performed the W estern blot analysis as requested. Purified NLK incubated with immunopurified NLK from treated samples, were separated by SDS-PAGE and immunoblotted with pThr298- NLK antibody. […]

c-Myb = c-Myb expression and phosphorylation in Kp53A1 cells switched to 32 °C (Western blot); assay type: cell-based; details: pretreated 30 min, 37 to 32 °C for 0, 16, 48 h, Fig. 7d
Experimental: as §1
Inhibitors were added to cells at indicated concentrations with a final DMSO concentration of 0.5%. […] IC50 calculations were obtained using 8–9 concentrations of compound and generated using the IC50 Calculator software by AAT Bioquest®. NLK, p38, or ALK5 for in vitro kinase assays were immunopurified from Kp53A1 cells. NLK activation was induced by incubating cells at 32° for 24-48 h, p38 by stimulating with IL-3, IL-6, SCF, and Epo at the same concentrations used for differentiating erythroid progenitors.

[5] = 3 days with Nutlin-3, Fig. 6b.ii

## C[C@@H]1CN(Cc2ccc(F)cc2)[C@@H](C)CN1C(=O)c1cc2c(C(=O)C(=O)N(C)C)cn(C)c2cc1Cl [SCIO-469]
p38 phosphorylation
  inhibition of p38: inhibited
[1]
  increase in erythropoiesis in RPS19-insufficiency: no increase

## COc1ccc(C2=N[C@@H](c3ccc(Cl)cc3)[C@@H](c3ccc(Cl)cc3)N2C(=O)N2CCNC(=O)C2)c(OC(C)C)c1 [Nutlin-3]
NLK dimerization and p53 [2]
  % P53hi: 31.7%
NLK dimerization and p53 [3]; [5]
  % FREThi in P53hi: 91.9%
  % FREThi in P53low: 6.6%
NLK dimerization and p53 [3]; shLuc, 3 days with Nutlin-3, control 9.0%, Fig. 6b
  % FREThi (cells with NLK dimerization): 50.2%

## CNC(=O)c1ccc(C)c(-n2c(C)cc(OCc3ccc(F)cc3F)c(Br)c2=O)c1 [PH797804]
p38 phosphorylation
  inhibition of p38: inhibited
[1]
  increase in erythropoiesis in RPS19-insufficiency: no increase
[4]
  phosphorylation of NLK at Thr298 by NLK immunopurified from treated RPS19-insufficient cells: not suppressed

## CC(=O)N[C@@H](CSC(=O)[C@]1([C@@H](O)C(C)C)NC(=O)[C@H](C)[C@@H]1O)C(=O)O [lactacystin]
c-Myb
  expression and phosphorylation of c-Myb after NLK activation: sustained out to 48 h

From publication PMC7334220, “Diamond Blackfan anemia is mediated by hyperactive Nemo-like kinase” (Nature Communications, 2020)
